Experimental data taken from publication PMC4658428 (Frontiers in Microbiology, 2015).

What was measured:
Type in all cases: cell-based
[1] = system: LdtR mutant Y81A, lacZ reporter in B. subtilis
[2] = system: LdtR mutant R37A, lacZ reporter in B. subtilis
[3] = system: S. meliloti strain SMP4A (ΔldtRSMc-pBBR1MCS-5::LdtR(T43A))
[4] = system: S. meliloti strain SMP4B (ΔldtRSMc-pBBR1MCS-5::LdtR(L61A))
[5] = system: S. meliloti strain SMP4C (ΔldtRSMc-pBBR1MCS-5::LdtR(F64A))

With `CCc1oc2ccccc2c1C(=O)c1cc(Br)c(O)c(Br)c1` [benzbromarone] the “decrease in β-galactosidase activity” value [1] was “around 40%”, the “decrease in β-galactosidase activity” value [2] was “around 40%” and the “Growth rate constant, k” value [3] was 0.056 ± 0.004 generations/h. For the same compound, the Mean generation time [3] was 17.9 h, the “Growth rate constant, k” value [4] was 0.056 ± 0.005 generations/h and the Mean generation time [4] was 17.9 h. For the same compound, the “Growth rate constant, k” value [5] was 0.058 ± 0.003 generations/h and the Mean generation time [5] was 17.2 h.
